The text below walks through data of patent US12594277B2, “Macrocyclic ULK1/2 inhibitors” (SALK INSTITUTE FOR BIOLOGICAL STUDIES, priority 2020, dated 2026).

SMILES strings stand for the structures. Where only a bound is given, the exact number is not on record here.

For assay [1], the target named is T1, recombinant human ULK1 protein (1-649) (Homo sapiens, UniProt O75385).
T1 construct: recombinant human ULK1 protein (1-649, SignalChem #U01-11G); purchased SignalChem U01-11G
T1 sequence (O75385 1-649): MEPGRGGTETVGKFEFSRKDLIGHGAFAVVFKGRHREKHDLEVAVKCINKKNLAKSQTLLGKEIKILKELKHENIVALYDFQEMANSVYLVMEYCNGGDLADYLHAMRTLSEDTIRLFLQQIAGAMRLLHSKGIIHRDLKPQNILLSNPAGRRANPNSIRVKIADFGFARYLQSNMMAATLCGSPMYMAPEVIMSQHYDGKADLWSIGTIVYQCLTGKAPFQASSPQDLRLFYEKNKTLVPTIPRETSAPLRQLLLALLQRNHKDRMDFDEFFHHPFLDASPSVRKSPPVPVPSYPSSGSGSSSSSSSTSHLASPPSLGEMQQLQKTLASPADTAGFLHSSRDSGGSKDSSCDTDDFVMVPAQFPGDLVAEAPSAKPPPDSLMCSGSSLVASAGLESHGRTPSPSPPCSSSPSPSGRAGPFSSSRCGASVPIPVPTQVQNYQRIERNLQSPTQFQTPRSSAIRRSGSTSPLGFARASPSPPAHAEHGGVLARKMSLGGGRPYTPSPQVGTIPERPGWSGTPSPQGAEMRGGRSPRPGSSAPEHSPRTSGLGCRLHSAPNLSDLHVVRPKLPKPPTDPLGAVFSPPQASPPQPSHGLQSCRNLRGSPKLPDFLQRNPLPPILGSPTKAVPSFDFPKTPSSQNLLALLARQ
Briefly: ULK1 inhibition assay (ADP-Glo). To be noted: 2 ug/mL ULK1, 80 ug/mL myelin basic protein, 25 uM ATP, assessed after one hour. Type of assay: biochemical. As to the method: IC50s measured by ADP-Glo assay are represented nM, with A representing IC50<20 nM, B representing IC50>20 nM. NT indicates the compound was not tested. ULK1 inhibition assays were performed in a 5 uL reaction volume containing 2 ug/mL recombinant human ULK1 protein (1-649, SignalChem #U01-11G) and 80 ug/mL myelin basic protein (MBP, Sigma-Aldrich #M1891) in the presence of 25 uM ATP (Sigma-Aldrich A7699). ULK 1 inhibition was assessed after one hour. Compounds were tested in triplicate in a 16-dose IC50 mode with 3-fold serial dilution and a starting dose of 30 uM. Staurosporine, a non-selective protein kinase inhibitor, was used in the assay as a positive control. Three separate experiments were carried out.

Assay [2] has as its target T2, NanoLuc-ULK1 fusion in HEK293T cells (Homo sapiens, UniProt O75385).
T2 construct: host or cells: HEK293T
T2 sequence (O75385 1-1050): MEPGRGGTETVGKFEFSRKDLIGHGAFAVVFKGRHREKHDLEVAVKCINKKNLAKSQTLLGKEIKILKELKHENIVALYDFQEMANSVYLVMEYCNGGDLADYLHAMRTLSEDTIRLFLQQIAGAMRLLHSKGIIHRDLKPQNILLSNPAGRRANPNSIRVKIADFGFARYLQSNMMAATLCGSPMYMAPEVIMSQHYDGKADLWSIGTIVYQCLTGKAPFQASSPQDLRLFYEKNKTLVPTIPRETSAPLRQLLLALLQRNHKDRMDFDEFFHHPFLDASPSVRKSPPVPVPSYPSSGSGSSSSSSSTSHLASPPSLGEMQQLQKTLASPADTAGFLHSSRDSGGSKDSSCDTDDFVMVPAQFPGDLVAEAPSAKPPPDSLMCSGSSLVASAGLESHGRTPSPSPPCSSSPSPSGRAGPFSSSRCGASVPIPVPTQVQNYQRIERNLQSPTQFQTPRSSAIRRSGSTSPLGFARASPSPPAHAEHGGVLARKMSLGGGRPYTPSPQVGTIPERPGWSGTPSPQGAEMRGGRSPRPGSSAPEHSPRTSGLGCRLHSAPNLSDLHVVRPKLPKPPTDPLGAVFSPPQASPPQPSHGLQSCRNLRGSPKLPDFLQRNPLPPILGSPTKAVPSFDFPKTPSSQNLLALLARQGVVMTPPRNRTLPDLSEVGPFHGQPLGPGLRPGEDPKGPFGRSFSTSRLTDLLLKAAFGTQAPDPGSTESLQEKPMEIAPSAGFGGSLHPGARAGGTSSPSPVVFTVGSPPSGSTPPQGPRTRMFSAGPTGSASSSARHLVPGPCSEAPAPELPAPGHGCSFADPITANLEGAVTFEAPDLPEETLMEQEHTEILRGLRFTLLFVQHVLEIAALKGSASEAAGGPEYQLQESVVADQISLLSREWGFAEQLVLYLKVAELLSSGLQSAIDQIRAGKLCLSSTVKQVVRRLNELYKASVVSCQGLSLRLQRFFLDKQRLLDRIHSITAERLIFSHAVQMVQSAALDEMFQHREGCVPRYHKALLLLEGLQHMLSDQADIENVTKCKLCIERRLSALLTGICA
In words: ULK1 NanoBRET assay. It is filed as cell-based. To be noted: HEK293T transfected with NanoLuc-ULK1 Fusion Vector, Tracer K-5, 2 h incubation. As to the method:
IC50s were also measured by ULK1 NanoBRET assay according to the following protocol: Human embryonic kidney cells (HEK293T) were transfected with NanoLuc®-ULK1 Fusion Vector (Promega #NV2211) using jetPRIME transfection reagent (Polyplus Transfection #114-15). Following 24 h, cells were trypsinized and resuspended in Opti-MEM® I (1×), Reduced Serum Medium (Gibco, #11058-021). Approximately, 7,000 cells per well (in 34 μL total volume) were replated into non-binding surface 384 well plates. Complete NanoBRET 20× Tracer K-5 reagent was prepared according to the manufacturer's directions and 2 μL were added to each well of the 384 plate (assay plate). The assay plate was mixed on an orbital shaker for 15 seconds at 700 rpm. Compounds were serially diluted at 200× final concentration in […], then diluted to 10× final concentration in assay media (Opti-MEM® I, Reduced Serum Medium). Next, 4 μL 10× test compounds were added to each well of the assay plate, followed by mixing at 700 rpm for 15 seconds. The assay plate was incubated for 2 h in a 37 C incubator with […] and then equilibrated to RT for 15 min. The 3× Complete Substrate plus Inhibitor Solution was prepared according to the manufacturer's directions with a concentration of Extracellular NanoLuc® Inhibitor of 60 μM to be used at a working concentration of 20 μM. The 3× Complete Substrate plus Inhibitor Solution was mixed and 20 μL per well was added to the assay plate and incubated at RT for 2-3 min. Donor emission wavelength (450 nm) and acceptor emission wavelength (610 nm) were measured using an assay compatible luminometer (see manufacturer's specifications).

As a reminder, the IC50 is the midpoint of a concentration-inhibition curve.

`CNC(=O)c1cc2ccc1Nc1nc(ncc1C(F)(F)F)Nc1ccc(c(OC)c1)OCCCCCO2` [Compound 1, 1^3-Methoxy-N-methyl-3^5-(trifluoromethyl)-6,12-dioxa-2,4-diaza-3(2,4)-pyrimidina-1,5(1,4)-dibenzenacyclododecaphane-5^2-carboxamide]: the IC50 was less than 20 nM in assay [1] and more than 1000 nM in assay [2]. In the case of `C=CCCOc1ccc(Nc2nc(Nc3ccc(OCC=C)c(OC)c3)ncc2C(F)(F)F)c(C(=O)NC)c1` [Compound 2, 2-((2-((4-(Allyloxy)-3-methoxyphenyl)amino)-5-(trifluoromethyl)pyrimidin-4-yl)amino)-5-(but-3-en-1-yloxy)-N-methylbenzamide], the IC50 in assay [1] is more than 20 nM. Take `CNC(=O)c1cc2ccc1Nc1nc(ncc1C(F)(F)F)Nc1ccc(c(OC)c1)OC/C=C/CCO2` [Compound 3, (E)-1^3-methoxy-N-methyl-3^5-(trifluoromethyl)-6,12-dioxa-2,4-diaza-3(2,4)-pyrimidina-1,5(1,4)-dibenzenacyclododecaphan-9-ene-5^2-carboxamide]: the IC50 in assay [1] is more than 20 nM; in assay [2], less than 1000 nM.

Regarding `CNC(=O)c1cc2ccc1Nc1nc(ncc1C(F)(F)F)Nc1ccc(c(OC)c1)OC/C=C\CCO2` [Compound 4, (Z)-1^3-methoxy-N-methyl-3^5-(trifluoromethyl)-6,12-dioxa-2,4-diaza-3(2,4)-pyrimidina-1,5(1,4)-dibenzenacyclododecaphan-9-ene-5^2-carboxamide], the figures for the IC50 in assay [1] and in assay [2] were more than 20 nM and less than 1000 nM, respectively. The corresponding values for `C=CCCCOc1ccc(Nc2nc(Nc3ccc(OCC=C)c(OC)c3)ncc2C(F)(F)F)c(C(=O)NC)c1` [Compound 5, 2-((2-((4-(Allyloxy)-3-methoxyphenyl)amino)-5-(trifluoromethyl)pyrimidin-4-yl)amino)-N-methyl-5-(pent-4-en-1-yloxy)benzamide] are more than 20 nM and more than 1000 nM. The like results for `CNC(=O)c1cc2ccc1Nc1nc(ncc1C(F)(F)F)Nc1ccc(c(OC)c1)OC/C=C/CCCO2` [Compound 6, (E/Z)-1^3-Methoxy-N-methyl-3^5-(trifluoromethyl)-6,13-dioxa-2,4-diaza-3(2,4)-pyrimidina-1,5(1,4)-dibenzenacyclotridecaphan-10-ene-5^2-carboxamide] were, in that order, less than 20 nM and less than 1000 nM.

As for `CNC(=O)c1cc2ccc1Nc1nc(ncc1C(F)(F)F)Nc1ccc(c(OC)c1)OCCCCCCO2` [Compound 7, 1^3-Methoxy-N-methyl-3^5-(trifluoromethyl)-6,13-dioxa-2,4-diaza-3(2,4)-pyrimidina-1,5(1,4)-dibenzenacyclotridecaphane-5^2-carboxamide], in assay [1], the IC50 is less than 20 nM. Still for that read-out and setting: next, `C=CCCOc1ccc(Nc2nc(Nc3ccc(OC)c(OCC=C)c3)ncc2C(F)(F)F)c(C(=O)NC)c1` [Compound 8, 2-((2-((3-(Allyloxy)-4-methoxyphenyl)amino)-5-(trifluoromethyl)pyrimidin-4-yl)amino)-5-(but-3-en-1-yloxy)-N-methylbenzamide]: less than 20 nM. As to `CNC(=O)c1cc2ccc1Nc1nc(ncc1C(F)(F)F)Nc1ccc(OC)c(c1)OC/C=C/CCO2` [Compound 9, (E/Z)-1^4-Methoxy-N-methyl-3^5-(trifluoromethyl)-6,12-dioxa-2,4-diaza-3(2,4)-pyrimidina-1(1,3),5(1,4)-dibenzenacyclododecaphan-9-ene-5^2-carboxamide], the IC50 in assay [1] was less than 20 nM; in assay [2] it was less than 1000 nM. The like results for `CNC(=O)c1cc2ccc1Nc1nc(ncc1C(F)(F)F)Nc1ccc(OC)c(c1)OCCCCCO2` [Compound 10, 1^4-Methoxy-N-methyl-3^5-(trifluoromethyl)-6,12-dioxa-2,4-diaza-3(2,4)-pyrimidina-1(1,3), 5(1,4)-dibenzenacyclododecaphane-5^2-carboxamide] were, in that order, less than 20 nM and more than 1000 nM. On to `C=CCCOc1ccc(Nc2nc(Nc3ccc(OCC=C)c(OC)c3)ncc2Br)c(C(=O)NC)c1` [Compound 11], for which the IC50 in assay [1] was more than 20 nM. As for `CNC(=O)c1ccc2cc1Nc1nc(ncc1C(F)(F)F)Nc1ccc(OC)c(c1)OC/C=C\CCCO2` [Compound 12, (E)-1^4-methoxy-N-methyl-35-(trifluoromethyl)-6,13-dioxa-2,4-diaza-3(2,4)-pyrimidina-1,5(1,3)-dibenzenacyclotridecaphan-10-ene-5^6-carboxamide], the IC50 in assay [1] was more than 20 nM; in assay [2], more than 1000 nM. The corresponding values for `CNC(=O)c1ccc2cc1Nc1nc(ncc1C(F)(F)F)Nc1ccc(OC)c(c1)OC/C=C/CCCO2` [Compound 13, (Z)-1^4-methoxy-N-methyl-35-(trifluoromethyl)-6,13-dioxa-2,4-diaza-3(2,4)-pyrimidina-1,5(1,3)-dibenzenacyclotridecaphan-10-ene-5^6-carboxamide] are more than 20 nM and more than 1000 nM. The corresponding values for `CNC(=O)c1ccc2cc1Nc1nc(ncc1C(F)(F)F)Nc1ccc(OC)c(c1)OCCCCCCO2` [Compound 14, 1^4-Methoxy-N-methyl-3^5-(trifluoromethyl)-6,13-dioxa-2,4-diaza-3(2,4)-pyrimidina-1,5(1,3)-dibenzenacyclotridecaphane-5^6-carboxamide] are more than 20 nM and more than 1000 nM. The corresponding values for `CNC(=O)c1ccc2cc1Nc1nc(ncc1C(F)(F)F)Nc1ccc(c(OC)c1)OC/C=C/CCCO2` [Compound 15, (E)-5^3-methoxy-N-methyl-3^5-(trifluoromethyl)-6,13-dioxa-2,4-diaza-3(4,2)-pyrimidina-1(1,3),5(1,4)-dibenzenacyclotridecaphan-8-ene-1^6-carboxamide] are more than 20 nM and more than 1000 nM.
